Source: US11857535B2, “Methods of treating mutant lymphomas” (Kymera Therapeutics, Inc., priority 2020, dated 2024)

Biological target: T1, IRAK4 (Homo sapiens, UniProt Q9NWZ3)
T1 construct: endogenous in cells; host or cells: OCI-Ly10
T1 sequence (Q9NWZ3 1-460): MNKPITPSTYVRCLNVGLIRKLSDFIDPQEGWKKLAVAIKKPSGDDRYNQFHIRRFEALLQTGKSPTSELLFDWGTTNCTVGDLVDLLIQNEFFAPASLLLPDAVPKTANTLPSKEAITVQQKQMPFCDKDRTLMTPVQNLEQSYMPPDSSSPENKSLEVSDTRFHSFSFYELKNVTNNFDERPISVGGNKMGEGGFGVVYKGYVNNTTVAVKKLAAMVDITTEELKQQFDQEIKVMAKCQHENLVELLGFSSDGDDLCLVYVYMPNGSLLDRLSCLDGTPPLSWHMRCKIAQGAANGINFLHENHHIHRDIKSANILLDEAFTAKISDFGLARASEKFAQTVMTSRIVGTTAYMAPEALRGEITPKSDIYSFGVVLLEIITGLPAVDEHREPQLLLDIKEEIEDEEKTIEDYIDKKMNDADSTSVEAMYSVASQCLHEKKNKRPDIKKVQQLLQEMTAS
Test: IRAK4 degradation in OCI-LY10 xenograft tumors (UPLC-MS/MS, tumor PD)
Type: in vivo
Conditions: for IRAK4 (% Deg): tumor PD, after 5d dosing
Description: At termination: At pre-determined time points based on study design, animals were humanely sacrificed by CO2. Blood was obtained by cardiac puncture for isolation of plasma, any residual tumor was removed and divided in 2 portions, 1 (minimal) for terminal compound exposure and 1 to determine IRAK4 and actin. Compound was determined in tumor and plasma using LC/MS with calibrated standards.
Interleukin-1 receptor-associated kinase 4 (IRAK4) was quantified in human OCI-LY10 xenograft tumors, together with mouse splenocytes and peripheral blood mononuclear cells (PBMCs), by ultra-performance liquid chromatography-tandem mass spectrometry (UPLC-MS/MS). The concentrations of IRAK4 were normalized by the concentrations of actin in the respective samples. The tumors, splenocytes and PBMCs were lysed in tissue protein extraction reagent (T-PER, ThermoFisher). The samples were centrifuged at 10,000 rpm for 10 minutes. The supernatant (cell lysate) was transferred to another tube. The cell lysates were denatured, reduced, and alkylated with iodoacetamide. The alkylated samples were treated with trypsin to generate the IRAK4 peptide LAVAIK and the actin peptide GYSFTTTAER. These peptides are unique and specific to IRAK4 and actin, respectively, in human, rat and mouse cells and tissues due to sequence conservation between these species.
Signature peptide concentrations were quantitated using a sensitive and specific targeted LC-MS/MS method. Corresponding mass-shifted, stable isotope-labeled peptides (LAV(d8)AIK and GYSF(d8)TTTAE(d6)R) were used as internal standards (ISs). Calibration standards and were prepared fresh on the day of analysis by diluting synthetic LAVAIK and […] peptides into 0.1% formic acid in 90/10 water acetonitrile (v/v). The standards and study samples) were aliquoted into a 96-well plate and mixed with IS spiking solution. The sample plate was covered with heating foil.
Signature peptide levels (LAVAIK, GYSFTTTAER) were quantified by UPLC-MS/MS. Injections were made using a Shimadzu ultra performance liquid chromatograph (UPLC) platform. Mobile phase A was 0.1% formic acid in water. Mobile phase B was 0.1% formic acid in 90:10 acetonitrile/water (v/v). A SCIEX TripleTOF 6600 LC-MS/MS system was used for the detection and quantitation of analytes. The intensities of the analytes and ISs were determined by integration of extracted ion peak areas using Analyst and MultiQuant 3.0 software. Calibration curves were prepared by plotting the analyte to IS peak area ratio vs. concentration. The model for the calibration curves was linear with 1/x^2 weighting. […] Measured peptide levels were corrected for sample work up and converted to actual protein concentrations in ng/mg total protein of cell lysate. […]

CC(C)(O)c1cc2nc([C@H]3CC[C@H](CN4CC5(CC(CCNc6cccc7c6C(=O)N(C6CCC(=O)NC6=O)C7=O)C5)C4)CC3)sc2cc1NC(=O)c1cccc(C(F)(F)F)n1 (stereo partly shown) [Compound A, N-(2-((1r,4r)-4-((6-(2-((2-(2,6-dioxopiperidin-3-yl)-1,3-dioxoisoindolin-4-yl)amino)ethyl)-2-azaspiro[3.3]heptan-2-yl)methyl)cyclohexyl)-5-(2-hydroxypropan-2-yl)benzo[d]thiazol-6-yl)-6-(trifluoromethyl)picolinamide]
tumor PD effect (following a single dose, FIG. 4): sustained PD effect
IRAK4 (% Deg) (3 mpk): 16%
IRAK4 (% Deg) (10 mpk): 75%
IRAK4 (% Deg) (30 mpk): 83%
